Laboratory results as given in patent US7138361B2, “Herbicidal heterocycles” (E. I. du Pont de Nemours and Company, priority 2000, dated 2006).

Experiments:
Type in all cases: in vivo
Nightshade = test: Test C preemergence
Sunflower [1] = test: Test C preemergence
[2] = system: Surinam grass (Brachiaria decumbens); test: Test C preemergence
How it was run: (§1)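 Response scores (0 no effect to 100 complete control) came from visual comparison with untreated controls 12 to 14 days after treatment. Preemergence application was made to seeded soil; postemergence, to plants at the 1- to 4-leaf stage.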

[3] = system: bermudagrass (Cynodon dactylon); test: Test C preemergence
How it was run: as §1

[4] = system: cocklebur (Xanthium strumarium); test: Test C preemergence
How it was run: as §1

corn (Zea mays) = test: Test C preemergence
How it was run: as §1

[5] = system: crabgrass (Digitaria sanguinalis); test: Test C preemergence
How it was run: as §1

[6] = system: giant foxtail (Setaria faberii); test: Test C preemergence
How it was run: as §1

[7] = system: goosegrass (Eleusine indica); test: Test C preemergence
How it was run: as §1

[8] = system: johnsongrass (Sorghum halepense); test: Test C preemergence
How it was run: as §1

kochia (Kochia scoparia) = test: Test C preemergence
How it was run: as §1

[9] = system: lambsquarters (Chenopodium album); test: Test C preemergence
How it was run: as §1

[10] = system: morningglory (Ipomoea hederacea); test: Test C preemergence
How it was run: as §1

[11] = system: pigweed (Amaranthus retroflexus); test: Test C preemergence
How it was run: as §1

soybean (Glycine max) = test: Test C preemergence
How it was run: as §1

[12] = system: velvetleaf (Abutilon theophrasti); test: Test C preemergence
How it was run: as §1

[13] = system: woolly cupgrass (Eriochloa villosa); test: Test C preemergence
How it was run: as §1

[14] = system: yellow nutsedge (Cyperus esculentus); test: Test C preemergence
How it was run: as §1

[15] = system: barnyardgrass (Echinochloa crus-galli); test: Test C flooded paddy test; settings: for Barnyardgrass plant response rating: Flooded Paddy, scale 0 to 100, 0 no effect, 100 complete control; for Plant response rating, Barnyardgrass: flooded paddy test, scale 0 to 100 (0 no effect, 100 complete control)
How it was run: (§2)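 Greenhouse-maintained for 12 to 14 days after treatment, the paddy plants (2-leaf stage at application) were scored visually against controls. A score of 0 denotes no effect and a score of 100 denotes complete control.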

[16] = system: duck salad (Heteranthera limosa); test: Test C flooded paddy test; settings: for Ducksalad plant response rating: Flooded Paddy, scale 0 to 100, 0 no effect, 100 complete control; for Plant response rating, Ducksalad: flooded paddy test, scale 0 to 100 (0 no effect, 100 complete control)
How it was run: as §2

[17] = system: smallflower flatsedge (Cyperus difformis); test: Test C flooded paddy test; settings: for Flatsedge plant response rating: Flooded Paddy, scale 0 to 100, 0 no effect, 100 complete control; for Plant response rating, Flatsedge: flooded paddy test, scale 0 to 100 (0 no effect, 100 complete control)
How it was run: as §2

Sunflower [18] = test: Test C preemergence; settings: Rate 250 g/ha, visual evaluation after 12 to 14 days
[19] = Rate 62 g/ha, scale 0 to 100, 0 no effect, 100 complete control
[20] = Preemergence, Rate 500 g/ha, scale 0 to 100
[21] = preemergence, Rate 250 g/ha, visual evaluation after 12 to 14 days
[22] = preemergence, Rate 125 g/ha, scale 0 to 100, 0 no effect, 100 complete control

## CC(C)c1ccn(C2SCN(c3cccc(OC(F)F)c3)C2=O)n1 (stereo not drawn) [Compound 44]
Nightshade; [19]
  Plant response rating, Nightshade: 0
Nightshade; Rate 125 g/ha, scale 0 to 100, 0 no effect, 100 complete control
  Plant response rating, Nightshade: 0
Nightshade; Rate 500 g/ha, scale 0 to 100
  Plant response rating, Nightshade: 30
Sunflower [1]; [19]
  Plant response rating, Sunflower: 0
Sunflower [1]; Rate 500 g/ha, scale 0 to 100
  Plant response rating, Sunflower: 30
[2]; [20]
  Plant response rating, Surinam grass: 90
[2]; [19]
  Plant response rating, Surinam grass: 0
[2]; [21]
  Plant response rating (0 to 100), Surinam grass: 80
[2]; [22]
  Plant response rating, Surinam grass: 80
[3]; [20]
  Plant response rating, Bermudagrass: 100
[3]; [19]
  Plant response rating, Bermudagrass: 90
[3]; [21]
  Plant response rating (0 to 100 where 0 is no effect and 100 is complete control), Bermudagrass: 100
[3]; [22]
  Plant response rating, Bermudagrass: 100
[4]; [20]
  Plant response rating, Cocklebur: 100
[4]; [21]
  Plant response rating (0 to 100), Cocklebur: 30
[4]; [22]
  Plant response rating, Cocklebur: 0
Corn (Zea mays); [20]
  Plant response rating, Corn: 70
Corn (Zea mays); [19]
  Plant response rating, Corn: 0
Corn (Zea mays); [21]
  Plant response rating (0 to 100), Corn: 0
Corn (Zea mays); [22]
  Plant response rating, Corn: 0
[5]; [20]
  Plant response rating, Crabgrass: 100
[5]; [19]
  Plant response rating, Crabgrass: 100
[5]; [21]
  Plant response rating (0 to 100), Crabgrass: 100
[5]; [22]
  Plant response rating, Crabgrass: 100
[6]; [20]
  Plant response rating, Foxtail, Giant: 90
[6]; [19]
  Plant response rating, Foxtail, Giant: 0
[6]; [21]
  Plant response rating (0 to 100), Foxtail, Giant: 100
[6]; [22]
  Plant response rating, Foxtail, Giant: 100
[7]; [20]
  Plant response rating, Goosegrass: 100
[7]; [19]
  Plant response rating, Goosegrass: 90
[7]; [21]
  Plant response rating (0 to 100), Goosegrass: 100
[7]; [22]
  Plant response rating, Goosegrass: 100
[8]; [20]
  Plant response rating, Johnsongrass: 100
[8]; [19]
  Plant response rating, Johnsongrass: 0
[8]; [21]
  Plant response rating (0 to 100), Johnsongrass: 90
[8]; [22]
  Plant response rating, Johnsongrass: 60
Kochia (Kochia scoparia); [20]
  Plant response rating, Kochia: 100
Kochia (Kochia scoparia); [19]
  Plant response rating, Kochia: 70
Kochia (Kochia scoparia); [21]
  Plant response rating (0 to 100), Kochia: 100
Kochia (Kochia scoparia); [22]
  Plant response rating, Kochia: 100
[9]; [20]
  Plant response rating, Lambsquarters: 100
[9]; [19]
  Plant response rating, Lambsquarters: 100
[9]; [21]
  Plant response rating (0 to 100), Lambsquarters: 100
[9]; [22]
  Plant response rating, Lambsquarters: 100
[10]; [20]
  Plant response rating, Morningglory: 40
[10]; [19]
  Plant response rating, Morningglory: 0
[10]; [21]
  Plant response rating (0 to 100), Morningglory: 20
[10]; [22]
  Plant response rating, Morningglory: 0
[11]; [20]
  Plant response rating, Pigweed: 100
[11]; [19]
  Plant response rating, Pigweed: 0
[11]; [21]
  Plant response rating (0 to 100), Pigweed: 20
[11]; [22]
  Plant response rating, Pigweed: 0
Soybean (Glycine max); [20]
  Plant response rating, Soybean: 30
Soybean (Glycine max); [19]
  Plant response rating, Soybean: 0
Soybean (Glycine max); [21]
  Plant response rating (0 to 100), Soybean: 30
Soybean (Glycine max); [22]
  Plant response rating, Soybean: 0
[12]; [20]
  Plant response rating, Velvetleaf: 60
[12]; [19]
  Plant response rating, Velvetleaf: 0
[12]; [21]
  Plant response rating (0 to 100), Velvetleaf: 20
[12]; [22]
  Plant response rating, Velvetleaf: 0
[13]; [20]
  Plant response rating, Cupgrass, Woolly: 100
[13]; [19]
  Plant response rating, Cupgrass, Woolly: 30
[13]; [21]
  Plant response rating (0 to 100), Cupgrass, Woolly: 100
[13]; [22]
  Plant response rating, Cupgrass, Woolly: 90
[14]; [20]
  Plant response rating, Nutsedge: 100
[14]; [19]
  Plant response rating, Nutsedge: 0
[14]; [21]
  Plant response rating (0 to 100), Nutsedge: 60
[14]; [22]
  Plant response rating, Nutsedge: 30
[15]; Rate 250 g/ha
  Barnyardgrass plant response rating: 100
[15]; Rate 500 g/ha
  Barnyardgrass plant response rating: 100
[15]; Rate 62 g/ha
  Plant response rating, Barnyardgrass: 90
[15]; Rate 125 g/ha
  Plant response rating, Barnyardgrass: 100
[16]; Rate 250 g/ha
  Ducksalad plant response rating: 100
[16]; Rate 500 g/ha
  Ducksalad plant response rating: 100
[16]; Rate 62 g/ha
  Plant response rating, Ducksalad: 50
[16]; Rate 125 g/ha
  Plant response rating, Ducksalad: 90
[17]; Rate 250 g/ha
  Flatsedge plant response rating: 100
[17]; Rate 500 g/ha
  Flatsedge plant response rating: 100
[17]; Rate 62 g/ha
  Plant response rating, Flatsedge: 90
[17]; Rate 125 g/ha
  Plant response rating, Flatsedge: 100
Sunflower [18]
  Plant response rating (0 to 100), Sunflower: 20
